Data as given in US20250271426A1, “REDUCTION OF BITTER TASTE OF ACTIVE PHARMACEUTICAL INGREDIENTS AND RELATED ASSAYS AND SCREENING METHODS” (Firmenich Incorporated, priority 2022, published 2025).

Experiments:
Assay in all cases: FLIPR calcium assay, cells with promiscuous G protein transfected with bitter receptor cDNA
Assay type in all cases: cell-based
Details in all cases: responsive if cellular response of >10% over baseline, Fluo4-AM
[1] = molecular target: T1, T2R receptor SEQ ID NO: 3 (S3) (Homo sapiens, UniProt Q9NYW0, T156M)
T1 construct: expressed in transfected cells; host or cells: cells expressing a promiscuous G protein (e.g., G16g44)
T1 sequence (Q9NYW0 1-307 T156M): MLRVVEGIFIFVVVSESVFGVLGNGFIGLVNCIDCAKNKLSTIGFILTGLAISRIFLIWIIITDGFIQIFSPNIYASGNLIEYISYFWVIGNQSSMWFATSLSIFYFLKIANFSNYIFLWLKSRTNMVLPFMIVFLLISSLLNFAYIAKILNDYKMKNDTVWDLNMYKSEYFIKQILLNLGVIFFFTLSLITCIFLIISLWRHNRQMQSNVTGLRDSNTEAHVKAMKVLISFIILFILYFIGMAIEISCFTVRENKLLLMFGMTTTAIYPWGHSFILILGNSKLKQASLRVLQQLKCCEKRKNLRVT
Procedure, shortened: (§1)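 Fluo4-AM calcium imaging on FLIPR, agonist added during recording. Host: G16g44 cells, one receptor cDNA per transfection, 28 h culture. Activity cutoff >10% over baseline.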

[2] = molecular target: T2, T2R receptor SEQ ID NO: 1 (S1) (Homo sapiens, UniProt Q9NYW7)
T2 construct: expressed in transfected cells; host or cells: cells expressing a promiscuous G protein (e.g., G16g44)
T2 sequence (Q9NYW7 1-299): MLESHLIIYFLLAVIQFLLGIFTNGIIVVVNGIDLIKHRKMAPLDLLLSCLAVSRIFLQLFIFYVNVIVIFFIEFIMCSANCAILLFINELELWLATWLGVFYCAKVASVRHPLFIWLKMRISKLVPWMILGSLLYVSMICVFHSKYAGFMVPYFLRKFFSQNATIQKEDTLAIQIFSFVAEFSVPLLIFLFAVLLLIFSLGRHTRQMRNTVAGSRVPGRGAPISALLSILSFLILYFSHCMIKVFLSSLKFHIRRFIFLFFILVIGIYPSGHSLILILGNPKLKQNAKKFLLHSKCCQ
Procedure, shortened: as §1

[3] = molecular target: T3, T2R receptor SEQ ID NO: 2 (S2) (Homo sapiens, UniProt Q9NYW2)
T3 construct: expressed in transfected cells; host or cells: cells expressing a promiscuous G protein (e.g., G16g44)
T3 sequence (Q9NYW2 1-309): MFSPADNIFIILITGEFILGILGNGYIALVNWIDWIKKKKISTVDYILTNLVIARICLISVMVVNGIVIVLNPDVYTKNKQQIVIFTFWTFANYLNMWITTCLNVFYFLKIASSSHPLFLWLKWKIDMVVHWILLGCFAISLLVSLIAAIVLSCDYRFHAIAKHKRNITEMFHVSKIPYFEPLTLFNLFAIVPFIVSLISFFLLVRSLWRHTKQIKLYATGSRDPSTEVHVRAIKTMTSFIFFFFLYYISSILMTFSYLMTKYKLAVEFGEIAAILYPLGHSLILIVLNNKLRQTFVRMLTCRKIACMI
Procedure, shortened: as §1

[4] = molecular target: T4, T2R receptor SEQ ID NO: 6 (S6) (Homo sapiens, UniProt P59540)
T4 construct: expressed in transfected cells; host or cells: cells expressing a promiscuous G protein (e.g., G16g44)
T4 sequence (P59540 1-309): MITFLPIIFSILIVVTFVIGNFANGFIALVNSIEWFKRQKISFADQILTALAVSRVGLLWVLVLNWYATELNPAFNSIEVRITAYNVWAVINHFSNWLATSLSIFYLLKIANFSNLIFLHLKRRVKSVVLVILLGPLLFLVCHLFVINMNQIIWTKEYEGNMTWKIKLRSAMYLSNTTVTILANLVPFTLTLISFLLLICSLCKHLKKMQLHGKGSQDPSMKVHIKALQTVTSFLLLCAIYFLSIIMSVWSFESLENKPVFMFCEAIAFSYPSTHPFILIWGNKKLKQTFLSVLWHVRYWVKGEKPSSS
Procedure, shortened: as §1

[5] = molecular target: T5, T2R receptor SEQ ID NO: 5 (S5) (Homo sapiens, UniProt P59534)
T5 construct: expressed in transfected cells; host or cells: cells expressing a promiscuous G protein (e.g., G16g44)
T5 sequence (P59534 18-338): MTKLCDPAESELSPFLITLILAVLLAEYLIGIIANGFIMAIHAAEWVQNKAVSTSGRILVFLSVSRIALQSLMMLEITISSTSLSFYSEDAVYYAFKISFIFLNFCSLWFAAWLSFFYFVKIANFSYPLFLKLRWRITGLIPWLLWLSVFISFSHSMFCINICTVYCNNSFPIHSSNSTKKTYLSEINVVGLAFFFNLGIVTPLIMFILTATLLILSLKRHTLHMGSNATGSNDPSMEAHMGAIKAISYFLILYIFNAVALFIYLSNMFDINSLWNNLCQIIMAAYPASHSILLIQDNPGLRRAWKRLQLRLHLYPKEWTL
Procedure, shortened: as §1

[6] = molecular target: T6, T2R receptor SEQ ID NO: 4 (S4) (Homo sapiens, UniProt Q9NYV8)
T6 construct: expressed in transfected cells; host or cells: cells expressing a promiscuous G protein (e.g., G16g44)
T6 sequence (Q9NYV8 1-317): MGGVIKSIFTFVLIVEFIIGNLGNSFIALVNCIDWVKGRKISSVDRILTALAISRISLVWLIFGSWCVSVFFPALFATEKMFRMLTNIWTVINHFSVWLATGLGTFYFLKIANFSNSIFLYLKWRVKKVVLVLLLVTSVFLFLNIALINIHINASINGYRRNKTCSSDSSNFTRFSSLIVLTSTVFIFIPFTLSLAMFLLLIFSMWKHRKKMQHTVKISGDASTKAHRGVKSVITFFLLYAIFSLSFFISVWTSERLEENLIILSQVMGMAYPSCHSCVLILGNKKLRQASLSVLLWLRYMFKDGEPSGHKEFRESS
Procedure, shortened: as §1

CCN[C@H]1CN(CCCOC)S(=O)(=O)c2sc(S(N)(=O)=O)cc21 [Brinzolamide]
S3 positive response of T2R receptor to API [1]: + (a “+” to indicate whether a particular T2R receptor showed a positive response to a particular API)
S1 positive response of T2R receptor to API [2]: + (a “+” to indicate whether a particular T2R receptor showed a positive response to a particular API)
S2 positive response of T2R receptor to API [3]: + (a “+” to indicate whether a particular T2R receptor showed a positive response to a particular API)
S6 positive response of T2R receptor to API [4]: + (a “+” to indicate whether a particular T2R receptor showed a positive response to a particular API)

COc1cc(Cc2cnc(N)nc2N)cc(OC)c1OC [Trimethoprim]
S3 positive response of T2R receptor to API [1]: + (a “+” to indicate whether a particular T2R receptor showed a positive response to a particular API)
S5 positive response of T2R receptor to API [5]: + (a “+” to indicate whether a particular T2R receptor showed a positive response to a particular API)
S2 positive response of T2R receptor to API [3]: + (a “+” to indicate whether a particular T2R receptor showed a positive response to a particular API)
S6 positive response of T2R receptor to API [4]: + (a “+” to indicate whether a particular T2R receptor showed a positive response to a particular API)

CC[C@H]1OC(=O)[C@H](C)[C@@H](O[C@H]2C[C@@](C)(OC)[C@@H](O)[C@H](C)O2)[C@H](C)[C@@H](O[C@@H]2O[C@H](C)C[C@H](N(C)C)[C@H]2O)[C@](C)(O)C[C@@H](C)C(=O)[C@H](C)[C@@H](O)[C@]1(C)O [Erythromycin]
S3 positive response of T2R receptor to API [1]: + (a “+” to indicate whether a particular T2R receptor showed a positive response to a particular API)
S5 positive response of T2R receptor to API [5]: + (a “+” to indicate whether a particular T2R receptor showed a positive response to a particular API)
S2 positive response of T2R receptor to API [3]: + (a “+” to indicate whether a particular T2R receptor showed a positive response to a particular API)
S6 positive response of T2R receptor to API [4]: + (a “+” to indicate whether a particular T2R receptor showed a positive response to a particular API)

C[C@H]1O[C@@H](O[C@H]2[C@@H](O)C[C@H](O[C@H]3[C@@H](O)C[C@H](O[C@H]4CC[C@@]5(C)[C@H](CC[C@@H]6[C@@H]5C[C@@H](O)[C@]5(C)[C@@H](C7=CC(=O)OC7)CC[C@]65O)C4)O[C@@H]3C)O[C@@H]2C)C[C@H](O)[C@@H]1O [Digoxin]
S3 positive response of T2R receptor to API [1]: + (a “+” to indicate whether a particular T2R receptor showed a positive response to a particular API)
S2 positive response of T2R receptor to API [3]: + (a “+” to indicate whether a particular T2R receptor showed a positive response to a particular API)
S6 positive response of T2R receptor to API [4]: + (a “+” to indicate whether a particular T2R receptor showed a positive response to a particular API)
S4 positive response of T2R receptor to API [6]: + (a “+” to indicate whether a particular T2R receptor showed a positive response to a particular API)

CCN[C@H]1C[C@H](C)S(=O)(=O)c2sc(S(N)(=O)=O)cc21 [Dorzolamide]
S3 positive response of T2R receptor to API [1]: + (a “+” to indicate whether a particular T2R receptor showed a positive response to a particular API)
S1 positive response of T2R receptor to API [2]: + (a “+” to indicate whether a particular T2R receptor showed a positive response to a particular API)
S2 positive response of T2R receptor to API [3]: + (a “+” to indicate whether a particular T2R receptor showed a positive response to a particular API)
S6 positive response of T2R receptor to API [4]: + (a “+” to indicate whether a particular T2R receptor showed a positive response to a particular API)

CCCCC(CC)COC(=O)CC(C(=O)OCC(CC)CCCC)S(=O)(=O)O (centres unmarked) [Docusate]
S1 positive response of T2R receptor to API [2]: + (a “+” to indicate whether a particular T2R receptor showed a positive response to a particular API)
S2 positive response of T2R receptor to API [3]: + (a “+” to indicate whether a particular T2R receptor showed a positive response to a particular API)
S4 positive response of T2R receptor to API [6]: + (a “+” to indicate whether a particular T2R receptor showed a positive response to a particular API)

CN1CCN(CC(=O)N2c3ccccc3C(=O)Nc3cccnc32)CC1 [Pirenzepine]
S3 positive response of T2R receptor to API [1]: + (a “+” to indicate whether a particular T2R receptor showed a positive response to a particular API)
S5 positive response of T2R receptor to API [5]: + (a “+” to indicate whether a particular T2R receptor showed a positive response to a particular API)
S2 positive response of T2R receptor to API [3]: + (a “+” to indicate whether a particular T2R receptor showed a positive response to a particular API)
S6 positive response of T2R receptor to API [4]: + (a “+” to indicate whether a particular T2R receptor showed a positive response to a particular API)

C[C@]12C=CC(=O)C=C1CC[C@@H]1[C@@H]2C(=O)C[C@@]2(C)[C@H]1CC[C@]2(O)C(=O)CO [Prednisone]
S3 positive response of T2R receptor to API [1]: + (a “+” to indicate whether a particular T2R receptor showed a positive response to a particular API)
S1 positive response of T2R receptor to API [2]: + (a “+” to indicate whether a particular T2R receptor showed a positive response to a particular API)
S2 positive response of T2R receptor to API [3]: + (a “+” to indicate whether a particular T2R receptor showed a positive response to a particular API)
S6 positive response of T2R receptor to API [4]: + (a “+” to indicate whether a particular T2R receptor showed a positive response to a particular API)
S4 positive response of T2R receptor to API [6]: + (a “+” to indicate whether a particular T2R receptor showed a positive response to a particular API)

CN1[C@@H]2CC[C@H]1C[C@@H](OC(=O)C(CO)c1ccccc1)C2 (some centres unmarked) [Atropine]
S3 positive response of T2R receptor to API [1]: + (a “+” to indicate whether a particular T2R receptor showed a positive response to a particular API)
S5 positive response of T2R receptor to API [5]: + (a “+” to indicate whether a particular T2R receptor showed a positive response to a particular API)
S2 positive response of T2R receptor to API [3]: + (a “+” to indicate whether a particular T2R receptor showed a positive response to a particular API)
S6 positive response of T2R receptor to API [4]: + (a “+” to indicate whether a particular T2R receptor showed a positive response to a particular API)

COc1ccc([C@@H]2Sc3ccccc3N(CCN(C)C)C(=O)[C@@H]2OC(C)=O)cc1 [Diltiazem]
S3 positive response of T2R receptor to API [1]: + (a “+” to indicate whether a particular T2R receptor showed a positive response to a particular API)
S1 positive response of T2R receptor to API [2]: + (a “+” to indicate whether a particular T2R receptor showed a positive response to a particular API)
S2 positive response of T2R receptor to API [3]: + (a “+” to indicate whether a particular T2R receptor showed a positive response to a particular API)
S6 positive response of T2R receptor to API [4]: + (a “+” to indicate whether a particular T2R receptor showed a positive response to a particular API)
S4 positive response of T2R receptor to API [6]: + (a “+” to indicate whether a particular T2R receptor showed a positive response to a particular API)
